Experimental data: patent publication US8389523B2, “Substituted quinoxaline and an agrochemical composition thereof” (Kumiai Chemical Industry Co., Ltd., priority 2007, dated 2013)

Assays:
Assay type in all cases: in vivo
Parameters in all cases: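 grade 0 to 5 of growth suppression where 5 is 90% or more and 0 below 10%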
Amaranthus viridis L. = test: Herbicidal effects in upland field soil treatment (Test Example 2); details: 1000 g active ingredient per hectare, 21st day after treatment, criteria of Table 138
Description: (§1) Test Example 2 Test on Herbicidal Effects in Upland Field Soil Treatment A 80-cm^2 plastic pot was filled with upland field soil. Seeds of Abutilon theophrasti medicus and Amaranthus viridis L. were sowed, and soil was covered. A wettable powder formulation prepared according to Preparation Example 1 was diluted with water, and was uniformly sprayed on the soil surface with a small sprayer, in an amount equivalent to 1000 liters per hectare, such that 1000 g of the active ingredient per hectare was applied. Thereafter, the plants were grown in a greenhouse, and on the 21st day after the treatment, the herbicidal effects were investigated according to the criteria described in the Table 138 shown above.

[1] = tested on: Abutilon theophrasti medicus; test: as above; details: 1000 g active ingredient per hectare, 21st day after treatment, criteria of Table 138
Description: as §1

[2] = tested on: Scirpus juncoides Roxb. var. ohwianus. T. Koyama; test: Herbicidal effects in paddy field soil treatment (Test Example 1); details: paddy field soil treatment; 1000 g of the active ingredient per hectare; wettable powder added dropwise on water surface; 21st day after treatment
Description: (§2) Test for Herbicidal Effects in Paddy Field Soil Treatment
(§3) A 100-cm^2 plastic pot was filled with paddy field soil. After puddling and leveling, seeds of Echinochloa oryzicola Vasing, Monochoria vaginalis (Burm. f.) Presl var. plantaginea (Roxb.) Solms-Laub., and Scirpus juncoides Roxb. var. ohwianus. T. Koyama were sowed, and the soil was waterlogged to a water depth of 3 cm. On the next day, a wettable powder formulation prepared according to Preparation Example 1 was diluted with water, and was added dropwise on the water surface. The amount of application was an amount equivalent to 1000 g of the active ingredient per hectare. Thereafter, the plants were grown in a greenhouse, and on the 21st day after the treatment, the herbicidal effects were investigated according to the criteria described in Table 138.

[3] = tested on: Monochoria vaginalis (Burm. f.) Presl var. plantaginea (Roxb.) Solms-Laub.; test: as above; details: paddy field soil treatment; 1000 g of the active ingredient per hectare; wettable powder added dropwise on water surface; 21st day after treatment
Description: as §2, §3

[4] = tested on: Echinochloa oryzicola Vasing; test: as above; details: paddy field soil treatment; 1000 g of the active ingredient per hectare; wettable powder added dropwise on water surface; 21st day after treatment
Description: as §2, §3

SMILES | herbicidal effect (index) on Amaranthus viridis L. (Amaranthus viridis L.) | herbicidal effect (index) on Abutilon theophrasti medicus [1] | Herbicidal effects index, Scirpus juncoides Roxb. var. ohwianus. T. Koyama [2] | Herbicidal effects index, Monochoria vaginalis (Burm. f.) Presl var. plantaginea (Roxb.) Solms-Laub. [3] | Herbicidal effects index, Echinochloa oryzicola Vasing [4]
COc1ccc(-n2c(=O)c(C(=O)C3=C(O)CCCC3=O)nc3c(F)cc(F)cc32)cc1 [II-259] | 5 | 5 | 5 | 5 | 4
COc1ccc(Cn2c(=O)c(C(=O)C3=C(O)CCCC3=O)nc3ccccc32)cc1 [I-126] |  |  | 5 | 5 | 4
CCn1c(=O)c(C(=O)C2=C(O)CCCC2=O)nc2c(Cl)cccc21 [I-363] | 5 | 5 | 5 | 5 | 5
O=C1CCCC(O)=C1C(=O)c1nc2cc(F)ccc2n(Cc2ccccc2)c1=O [I-280] |  |  | 5 | 5 | 5
COc1ccc(-n2c(=O)c(C(=O)C3=C(O)CCCC3=O)nc3c(Cl)cc(Cl)cc32)cc1 [II-262] | 5 | 4 |  |  | 
COc1ccc(-n2c(=O)c(C(=O)C3=C(O)CCCC3=O)nc3cc(F)ccc32)cc1 [II-187] |  |  | 5 | 5 | 5
COc1c(F)cc(-n2c(=O)c(C(=O)C3=C(O)CCCC3=O)nc3c(F)cccc32)cc1F [II-235] | 5 | 4 | 5 | 5 | 4
COc1ccc(-n2c(=O)c(C(=O)C3=C(O)CCCC3=O)nc3c(F)cccc32)cc1 [II-186, 5-fluoro-3-(2-hydroxy-6-oxo-1-cyclohexenecarbonyl)-1-(4-methoxyphenyl)-quinoxalin-2(1H)-one] | 5 | 5 | 5 | 5 | 4
COc1ccc(-n2c(=O)c(C(=O)C3=C(O)CCCC3=O)nc3c(F)c(F)c(OC)c(F)c32)cc1 [II-302] | 5 | 4 |  |  | 
COc1c(F)cc(-n2c(=O)c(C(=O)C3=C(O)CCCC3=O)nc3ccc(C)cc32)cc1F [II-248] |  |  | 5 | 5 | 5
O=C1CCCC(O)=C1C(=O)c1nc2ccccc2n(C2CCSCC2)c1=O [I-166] |  |  | 5 | 5 | 4
C=CCOc1ccc(-n2c(=O)c(C(=O)C3=C(O)CCCC3=O)nc3ccccc32)cc1 [II-81] | 5 | 5 | 5 | 5 | 5
COc1ccc(-n2c(=O)c(C(=O)C3=C(O)CCCC3=O)nc3ccccc32)c(OC)c1 [II-177] |  |  | 5 | 5 | 4
Cn1ccc2cc(-n3c(=O)c(C(=O)C4=C(O)CCCC4=O)nc4ccccc43)ccc21 [I-276] |  |  | 5 | 5 | 5
COc1ccc(-n2c(=O)c(C(=O)C3=C(O)CCCC3=O)nc3ccccc32)cc1Cl [II-179] |  |  | 5 | 5 | 4
CC(=O)c1ccc(-n2c(=O)c(C(=O)C3=C(O)CCCC3=O)nc3ccccc32)cc1 [II-140] |  |  | 4 | 5 | 5
CCNc1nc(NC(C)C)nc(-n2c(=O)c(C(=O)C3=C(O)CCCC3=O)nc3ccccc32)n1 [I-274] |  |  | 4 | 5 | 5

SMILES | herbicidal effect (index) on Amaranthus viridis L. (Amaranthus viridis L.) | herbicidal effect (index) on Abutilon theophrasti medicus [1] | Herbicidal effects index, Scirpus juncoides Roxb. var. ohwianus. T. Koyama [2] | Herbicidal effects index, Monochoria vaginalis (Burm. f.) Presl var. plantaginea (Roxb.) Solms-Laub. [3] | Herbicidal effects index, Echinochloa oryzicola Vasing [4]
COC(=O)c1ccc(-n2c(=O)c(C(=O)C3=C(O)CCCC3=O)nc3ccccc32)cc1 [II-146] | 5 | 4 |  |  | 
COc1ccccc1Cn1c(=O)c(C(=O)C2=C(O)CCCC2=O)nc2ccccc21 [I-120] |  |  | 5 | 5 | 4
COc1ccc(-n2c(=O)c(C(=O)C3=C(O)CCCC3=O)nc3ccc(OC)cc32)cc1 [II-253] |  |  | 5 | 5 | 5
COc1ccc(-n2c(=O)c(C(=O)C3=C(O)CCCC3=O)nc3ccccc32)c(Cl)c1 [II-175] |  |  | 5 | 5 | 4
CC(C)(C)n1c(=O)c(C(=O)C2=C(O)CCCC2=O)nc2ccccc21 [I-18] | 5 | 5 |  |  | 
COc1ccc(-n2c(=O)c(C(=O)C3=C(O)CCCC3=O)nc3ccccc32)cc1OC [II-169] |  |  | 5 | 5 | 5
COc1ccc(-n2c(=O)c(C(=O)C3=C(O)CCCC3=O)nc3c(F)c(F)ccc32)cc1 [II-258] |  |  | 5 | 5 | 4
CS(=O)(=O)Cn1c(=O)c(C(=O)C2=C(O)CCCC2=O)nc2ccccc21 [I-80] | 5 | 5 |  |  | 
O=C1CCCC(O)=C1C(=O)c1nc2ccccc2n(-c2ccc(OCC(F)(F)F)cc2)c1=O [II-209] |  |  | 5 | 5 | 5
O=C1CCCC(O)=C1C(=O)c1nc2ccccc2n(Cc2ccc(Cl)cc2)c1=O [I-113] |  |  | 5 | 5 | 5
CC(C(=O)OC(C)(C)C)n1c(=O)c(C(=O)C2=C(O)CCCC2=O)nc2cccnc21 (centres unmarked) [III-233] | 5 | 5 |  |  | 
COc1ccc2c(c1)nc(C(=O)C1=C(O)CCCC1=O)c(=O)n2-c1ccccc1 [II-250] | 5 | 5 |  |  | 
COc1cccc(Cn2c(=O)c(C(=O)C3=C(O)CCCC3=O)nc3ccccc32)c1 [I-125] |  |  | 5 | 5 | 4
COc1ccc(-n2c(=O)c(C(=O)C3=C(O)CCCC3=O)nc3cc(Cl)ccc32)cc1 [II-195] |  |  | 5 | 5 | 5
COc1ccc(-n2c(=O)c(C(=O)C3=C(O)CCCC3=O)nc3cc(C)ccc32)cc1 [II-246] |  |  | 5 | 5 | 4
Cn1c(=S)c(C(=O)C2=C(O)CCCC2=O)nc2ccccc21 [I-256, 3-hydroxy-2-(1-methyl-2-thioxo-1,2-dihydroquinoxalin-3-yl-carbonyl)-2-cyclohexen-1-one] | 5 | 5 |  |  | 
